Test system: 301 cancer cell lines from different tumor types (OncoPanel; HD Biosciences)
Test: 2D cell viability inhibition assay (CellTiter-Glo) in cancer cell line panel
Format: cell-based
Design: key to AUC: AUC as fraction of the no-inhibition area (dose range × 0–100 % of control)
Details: for Emax: in %
Protocol: In a larger screening study, compound 1 was evaluated across a broad cancer cell line panel (OncoPanel; HD Biosciences) composed of 301 cancer cell lines from different tumor types.
2D cell viability inhibition assays were performed in multiwell plates seeded with cells from the panel. After seeding, the plates were cultured overnight in a humidified incubator at 37° C. to promote adherence. Assays were initiated in individual wells by adding either DMSO as a vehicle control, growth media as a blank, or serially diluted compound 1 (10 μM to 0.0005 μM with 1:3 serial dilution). Cultures were incubated for 168 hours after which the number of viable cells in each test well was assessed using the CellTiter-Glo® Luminescent Cell Viability Assay. Luminescence readouts were performed using an EnVision® Multilabel Reader and the compound 1 readouts were normalized to the DMSO control readouts, expressed as a percent of the control. Outliers were flagged out by visual inspection. Percent of control was plotted against the corresponding compound 1 concentration and the absolute IC50 value was determined using four-parameter logistic non-linear regression as the concentration where inhibition was 50% of the control. For maximum inhibition <50%, the absolute IC50 was reported as >10. In addition to EC50 and IC50, AUC was determined and was normalized to the area corresponding to theoretical no-inhibition (the rectangular area defined by the compound dose range and 0 to 100 in y). Emax was recorded as the minimum in y with the compound dose range. For those cell lines where Emax>40, EC50 was manually set to 10 μM. A hierarchical clustering algorithm based on Euclidean distance between the standardized input values and “Ward.D” method as implemented in R hclust function was used to visualize the compound 1 cellular potency data. The sensitive/moderate/resistant calls for each cell line was determined by visually inspecting the resulting clustering dendrogram. All the analyses were done in R Core Team.

## CC(C)c1ccc(N(C)c2ccc3c(c2)OCC[C@H]3CNc2cnccc2C(=O)O)cc1 [Compound 1, 3-({[(4R)-7-{methyl[4-(propan-2-yl)phenyl]amino}-3,4-dihydro-2H-1-benzopyran-4-yl]methyl}amino)pyridine-4-carboxylic acid]
143B cell line
  AUC: 0.3582
  Emax: 2.196
647V cell line
  AUC: 0.3912
  Emax: 10.18
5637 cell line
  AUC: 0.4857
  EC50: 0.00224 µM
  IC50: 0.00611 µM
  Emax: 33.01
7860 cell line
  AUC: 0.5049
168 h, HS688AT, skin, NS
  IC50: > 10 µM
168 h, HS739T, breast, NS
  IC50: > 10 µM
168 h, HS839T, skin, NS
  IC50: > 10 µM
168 h, HS852T, skin, NS
  IC50: > 10 µM
168 h, HUH28, biliary tract, NS
  IC50: > 10 µM
168 h, KG1, haematopoietic and lymphoid tissue, acute myeloid leukaemia
  IC50: > 10 µM
168 h, KURAMOCHI, ovary, undifferentiated carcinoma
  IC50: > 10 µM
168 h, NMCG1, central nervous system, NS
  IC50: > 10 µM
168 h, SKMEL31, skin, NS
  IC50: > 10 µM
168 h, T24, urinary tract, transitional cell carcinoma
  IC50: > 10 µM
168 h, TE1, oesophagus, squamous cell carcinoma
  IC50: > 10 µM
168 h, TE8, oesophagus, squamous cell carcinoma
  IC50: > 10 µM
A101D cell line
  AUC: 0.4689
  Emax: 20.46
A204, soft tissue, NS, 168 hours
  AUC: 0.7136
A375 cell line
  AUC: 0.4405
  Emax: 19.51
A549 cell line
  AUC: 0.573
A2058 cell line
  AUC: 0.5694
A2780 cell line
  AUC: 0.1811
ACHN cell line
  AUC: 0.453
AGS cell line
  AUC: 0.3536
  Emax: 14.1129
ASPC1 cell line
  AUC: 0.5812
AZ521 cell line
  AUC: 0.2875
BFTC905 cell line
  AUC: 0.3989
  Emax: 13.74
BICR18 cell line
  AUC: 0.619
  EC50: 0.187 µM
  IC50: 0.194 µM
BICR22 cell line
  AUC: 0.6829
  IC50: > 10 µM
BT20, breast, ductal carcinoma, 168 hours
  AUC: 0.9117
BT474, breast, ductal carcinoma, 168 hours
  AUC: 0.7206
BT549 cell line
  AUC: 0.431
  Emax: 20.55
BXPC3 cell line
  AUC: 0.5738
C2BBE1, large intestine, adenocarcinoma, 168 hours
  AUC: 0.8303
C32 cell line
  AUC: 0.2532
CAKI1 cell line
  AUC: 0.5319
  Emax: 34.03
CAL27, upper aerodigestive tract, squamous cell carcinoma, 168 hours
  AUC: 0.8335
CALU1, lung, squamous cell carcinoma, 168 hours
  AUC: 1.217
CALU3, lung, adenocarcinoma, 168 hours
  AUC: 0.7277
CALU6 cell line
  AUC: 0.4595
  Emax: 18.32
CAOV3 cell line
  AUC: 0.3908
  Emax: 19.3273
CAPAN1 cell line
  AUC: 0.6391
CAPAN2, pancreas, ductal carcinoma, 168 hours
  AUC: 0.8808
CCFSTTG1, central nervous system, astrocytoma, 168 hours
  AUC: 0.879
CFPAC1 cell line
  AUC: 0.5227
  Emax: 29.22
CHL1 cell line
  AUC: 0.3493
COLO205 cell line
  AUC: 0.4833
  Emax: 27.13
COLO320HSR cell line
  AUC: 0.2403
COLO679 cell line
  AUC: 0.502
COLO680N cell line
  AUC: 0.5311
  Emax: 33.76
COLO741 cell line
  AUC: 0.4186
  Emax: 18.78
COLO829 cell line
  AUC: 0.6557
CORL279 cell line
  AUC: 0.3155
DAOY, central nervous system, NS, 168 hours
  AUC: 0.9684
DAUDI cell line
  AUC: 0.5383
  Emax: 25.4109
DETROIT562 cell line
  AUC: 0.5873
  Emax: 36.51
DLD1 cell line
  AUC: 0.226
DMS53, lung, small cell carcinoma, 168 hours
  AUC: 0.7426
DMS79 cell line
  AUC: 0.3845
DMS153 cell line
  AUC: 0.6737
DMS273 cell line
  AUC: 0.4815
DU145 cell line
  AUC: 0.4324
  Emax: 18.16
DV90 cell line
  AUC: 0.3698
  Emax: 11.78
ECGI10 cell line
  AUC: 0.5683
  EC50: ≥ 10 µM
  IC50: 0.0224 µM
FTC133 cell line
  AUC: 0.4146
  Emax: 22.3385
G361, skin, NS, 168 hours
  AUC: 1.044
G401 cell line
  AUC: 0.2508
GAK cell line
  AUC: 0.6649
  IC50: > 10 µM
GI1 cell line
  AUC: 0.6237
GP2D cell line
  AUC: 0.506
GP2d, GP2D cell line
  EC50: 0.0206 µM
  IC50: 0.0262 µM
GRANTA519 cell line
  AUC: 0.4686
  Emax: 17.91
HCC38, breast, ductal carcinoma, 168 hours
  AUC: 0.9864
HCC70 cell line
  AUC: 0.4135
  Emax: 13.85
HCC78 cell line
  AUC: 0.5315
HCC95 cell line
  AUC: 0.4072
HCC827, lung, adenocarcinoma, 168 hours
  AUC: 0.8814
HCC1143 cell line
  AUC: 0.6906
HCC1187 cell line
  AUC: 0.465
  Emax: 34
HCC1419, breast, ductal carcinoma, 168 hours
  AUC: 0.7201
HCC1428, breast, NS, 168 hours
  AUC: 0.7818

— US20250134874A1, “PHARMACEUTICAL FORMULATIONS COMPRISING 3-({[(4R)-7-{METHYL[4-(PROPAN-2-YL)PHENYL]AMINO}-3,4-DIHYDRO-2H-1-BENZOPYRAN-4-YL]METHYL}AMINO)PYRIDINE-4-CARBOXYLIC ACID” (TACHYON THERAPEUTICS, INC., priority 2021, published 2025)
